Laboratory results from US10647713B2 (Nimbus Lakshmi, Inc., priority 2016, dated 2020).

target: human TYK2 (JH2domain-pseudokinase) (Homo sapiens (Human), UniProt P29597); test: TYK2 JH2 Domain Binding Assay (KINOMEscan, DiscoveRx); conditions: 11-point dilution, duplicate
Description: Binding constants for compounds of the present invention against the JH2 domain were determined by the following protocol for a KINOMEscan® assay (DiscoveRx). A fusion protein of a partial length construct of human TYK2 (JH2domain-pseudokinase) (amino acids G556 to D888 based on reference sequence NP_003322.3) and the DNA binding domain of NFkB was expressed in transiently transfected HEK293 cells. From these HEK 293 cells, extracts were prepared in M-PER extraction buffer (Pierce) in the presence of Protease Inhibitor Cocktail Complete (Roche) and Phosphatase Inhibitor Cocktail Set II (Merck) per manufacturers' instructions. The TYK2 (JH2domain-pseudokinase) fusion protein was labeled with a chimeric double-stranded DNA tag containing the NFkB binding site (5′-GGGAATTCCC-3′) fused to an amplicon for qPCR readout, which was added directly to the expression extract (the final concentration of DNA-tag in the binding reaction is 0.1 nM).
Streptavidin-coated magnetic beads (Dynal M280) were treated with a biotinylated small molecule ligand for 30 minutes at room temperature to generate affinity resins the binding assays. The liganded beads were blocked with excess biotin and washed with blocking buffer (SeaBlock (Pierce), 1% BSA, 0.05% Tween 20, 1 mM DTT) to remove unbound ligand and to reduce nonspecific binding.
The binding reaction was assembled by combining 16 μl of DNA-tagged kinase extract, 3.8 μl liganded affinity beads, and 0.18 μl test compound (PBS/0.05% Tween 20/10 mM DTT/0.1% BSA/2 μg/ml sonicated salmon sperm DNA)]. Extracts were used directly in binding assays without any enzyme purification steps at a ≥10,000-fold overall stock dilution (final DNA-tagged enzyme concentration <0.1 nM). Extracts were loaded with DNA-tag and diluted into the binding reaction in a two step process. First extracts were diluted 1:100 in 1× binding buffer (PBS/0.05% Tween 20/10 mM DTT/0.1% BSA/2 μg/ml sonicated salmon sperm DNA) containing 10 nM DNA-tag. This dilution was allowed to equilibrate at room temperature for 15 minutes and then subsequently diluted 1:100 in 1× binding buffer. Test compounds were prepared as 111× stocks in 100% DMSO. Kds were determined using an 11-point 3-fold compound dilution series with three DMSO control points. All compounds for Kd measurements are distributed by acoustic transfer (non-contact dispensing) in 100% DMSO. The compounds were then diluted directly into the assays such that the final concentration of DMSO was 0.9%. All reactions performed in polypropylene 384-well plates. Each was a final volume of 0.02 mL. Assays were incubated with shaking for 1 hour at room temperature. Then the beads were pelleted and washed with wash buffer (1×PBS, 0.05% Tween 20) to remove displaced kinase and test compound. The washed based were re-suspended in elution buffer (1×PBS, 0.05% Tween 20, 0.5 μM non-biotinylated affinity ligand) and incubated at room temperature with shaking for 30 minutes. The kinase concentration in the eluates was measured by qPCR. qPCR reactions were assembled by adding 2.5 μL of kinase eluate to 7.5 μL of qPCR master mix containing 0.15 μM amplicon primers and 0.15 μM amplicon probe. The qPCR protocol consisted of a 10 minute hot start at 95° C., followed by 35 cycles of 95° C. for 15 seconds, 60° C. for 1 minute.
Test compounds were prepared as 111× stocks in 100% DMSO. Kds were determined using an 11-point 3-fold compound dilution series with three DMSO control points. All compounds for Kd measurements are distributed by acoustic transfer (non-contact dispensing) in 100% DMSO. The compounds were then diluted directly into the assays such that the final concentration of DMSO was 0.9%. The Kds were determined using a compound top concentration of 30,000 nM. Kd measurements were performed in duplicate.
Binding constants (Kds) were calculated with a standard dose-response curve using the Hill equation: […]
The Hill Slope was set to −1. […]

Chain of human TYK2 (JH2domain-pseudokinase) (P29597 556-888): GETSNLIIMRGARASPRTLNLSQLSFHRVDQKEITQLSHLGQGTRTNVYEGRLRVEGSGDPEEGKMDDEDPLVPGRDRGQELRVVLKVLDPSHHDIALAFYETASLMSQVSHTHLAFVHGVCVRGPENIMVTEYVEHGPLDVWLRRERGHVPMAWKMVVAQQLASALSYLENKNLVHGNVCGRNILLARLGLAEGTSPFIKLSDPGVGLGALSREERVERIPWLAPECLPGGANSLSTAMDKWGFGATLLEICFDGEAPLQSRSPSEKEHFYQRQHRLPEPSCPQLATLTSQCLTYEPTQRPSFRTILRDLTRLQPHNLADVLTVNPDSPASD

| Structure (SMILES) | Kd [nM] |
| --- | --- |
| CC1(C)CSC(c2ccc(Nc3cc(NC(=O)[C@H]4CC4(F)F)nc4[nH]c(C(F)F)nc34)c(S(C)(=O)=O)c2)=N1 [I-482, (R)—N-(2-(difluoromethyl)-7-((4-(4,4-dimethyl-4,5-dihydrothiazol-2-yl)-2-(methylsulfonyl)phenyl)amino)-3H-imidazo[4,5-b]pyridin-5-yl)-2,2-difluorocyclopropane-1-carboxamide] | 1 to 10 |
| Cn1cnc(-c2ccc(Nc3cc(NC(=O)[C@H]4CC4(F)F)nc4[nH]c(C(F)F)nc34)c(S(C)(=O)=O)c2)c1 [I-244, (R)—N-(2-(difluoromethyl)-7-((4-(1-methyl-1H-imidazol-4-yl)-2-(methylsulfonyl)phenyl)amino)-3H-imidazo[4,5-b]pyridin-5-yl)-2,2-difluorocyclopropane-1-carboxamide] | 0.5 to 1 |
| CS(=O)(=O)c1cc([C@H]2CCCOC2)ccc1Nc1cc(NC(=O)[C@H]2CC2(F)F)nc2[nH]c(C(F)F)nc12 [I-310, (R)—N-(2-(difluoromethyl)-7-((2-(methylsulfonyl)-4-((R)-tetrahydro-2H-pyran-3-yl)phenyl)amino)-3H-imidazo[4,5-b]pyridin-5-yl)-2,2-difluorocyclopropane-1-carboxamide] | 0.5 to 1 |
| CS(=O)(=O)c1cc([C@@H]2CCCCO2)ccc1Nc1cc(NC(=O)C2CC2(F)F)nc2[nH]c(C(F)F)nc12 (stereo partly drawn) [I-325, N-(2-(difluoromethyl)-7-((2-(methylsulfonyl)-4-((S)-tetrahydro-2H-pyran-2-yl)phenyl)amino)-3H-imidazo[4,5-b]pyridin-5-yl)-2,2-difluorocyclopropane-1-carboxamide] | 0.5 to 1 |
| Cc1csc(-c2ccc(Nc3cc(Nc4cnc(C)c(C)n4)nc4[nH]c(C(F)F)nc34)c(S(C)(=O)=O)c2)n1 [I-463, 2-(difluoromethyl)-N5-(5,6-dimethylpyrazin-2-yl)-N7-(2-(methylsulfonyl)-4-(4-methylthiazol-2-yl)phenyl)-3H-imidazo[4,5-b]pyridine-5,7-diamine] | 1 to 10 |
| COc1cc(C(=O)N2CCOCC2)ccc1Nc1cc(NC(=O)C2CC2)nc2[nH]c(C(F)F)nc12 [I-15, N-(2-(difluoromethyl)-7-((2-methoxy-4-(morpholine-4-carbonyl)phenyl)amino)-3H-imidazo[4,5-b]pyridin-5-yl)cyclopropanecarboxamide] | 1 to 10 |
| Cc1nc2c(Nc3ccccc3[S@+](C)[O-])cc(NC(=O)C3CC3)nc2[nH]1 [I-441, (S)—N-(2-methyl-7-((2-(methylsulfinyl)phenyl)amino)-3H-imidazo[4,5-b]pyridin-5-yl)cyclopropanecarboxamide] | 1 to 10 |
| COc1ccccc1Nc1cc(Nc2ccc(N3CCC4(CCOCC4)CC3)cn2)nc2[nH]c(C(F)F)nc12 [I-136, N5-(5-(3-oxa-9-azaspiro[5.5]undecan-9-yl)pyridin-2-yl)-2-(difluoromethyl)-N7-(2-methoxyphenyl)-3H-imidazo[4,5-b]pyridine-5,7-diamine] | > 10 |
| Cc1nc2c(Nc3ccc([C@@H]4CCC(F)(F)CO4)cc3S(C)(=O)=O)cc(NC(=O)C3CC3)nc2[nH]1 [I-616, (S)—N-(7-((4-(5,5-difluorotetrahydro-2H-pyran-2-yl)-2-(methylsulfonyl)phenyl)amino)-2-methyl-3H-imidazo[4,5-b]pyridin-5-yl)cyclopropanecarboxamide] | 0.1 to 0.5 |
| Cc1nc2c(Nc3ccc([C@@H]4CCCO4)cc3S(C)(=O)=O)cc(NC(=O)[C@@H]3CC3(F)F)nc2[nH]1 [I-426, (S)-2,2-difluoro-N-(2-methyl-7-((2-(methylsulfonyl)-4-((S)-tetrahydrofuran-2-yl)phenyl)amino)-3H-imidazo[4,5-b]pyridin-5-yl)cyclopropane-1-carboxamide] | 0.1 to 0.5 |
| COc1c(Cl)cccc1Nc1cc(NC(=O)C2CC2)nc2[nH]c(C(F)F)nc12 [I-19, N-(7-((3-chloro-2-methoxyphenyl)amino)-2-(difluoromethyl)-3H-imidazo[4,5-b]pyridin-5-yl)cyclopropanecarboxamide] | > 10 |
| CS(=O)(=O)c1cc([C@@H]2CCCOC2)ccc1Nc1cc(NC(=O)[C@@H]2CC2(F)F)nc2[nH]c(C(F)F)nc12 [I-438, (S)—N-(2-(difluoromethyl)-7-((2-(methylsulfonyl)-4-((S)-tetrahydro-2H-pyran-3-yl)phenyl)amino)-3H-imidazo[4,5-b]pyridin-5-yl)-2,2-difluorocyclopropane-1-carboxamide] | 1 to 10 |

Continued, values first:

| Kd [nM] | Structure (SMILES) |
| --- | --- |
| 0.1 to 0.5 | CN(c1cc(C2CC2)ccc1Nc1cc(NC(=O)C2CC2)nc2[nH]c(C(F)F)nc12)S(C)(=O)=O [I-183, N-(7-((4-cyclopropyl-2-(N-methylmethylsulfonamido)phenyl)amino)-2-(difluoromethyl)-3H-imidazo[4,5-b]pyridin-5-yl)cyclopropanecarboxamide] |
| 0.1 to 0.5 | Cc1cc(Nc2cc(Nc3ccc(C4CC4)cc3S(C)(=O)=O)c3nc(C)[nH]c3n2)nc(C)n1 [I-434, N7-(4-cyclopropyl-2-(methylsulfonyl)phenyl)-N5-(2,6-dimethylpyrimidin-4-yl)-2-methyl-3H-imidazo[4,5-b]pyridine-5,7-diamine] |
| 1 to 10 | Cc1nc2c(Nc3ccc(C4CCC4)cc3S(C)(=O)=O)cc(NC(=O)C3CC3(F)F)nc2[nH]1 (stereo not drawn) [I-361, N-(7-((4-cyclobutyl-2-(methylsulfonyl)phenyl)amino)-2-methyl-3H-imidazo[4,5-b]pyridin-5-yl)-2,2-difluorocyclopropane-1-carboxamide] |
| 0.1 to 0.5 | COc1c(Nc2cc(Nc3ccc(N4CCCC4=O)c(C#N)n3)nc3[nH]c(C)nc23)cccc1-c1nnn(C)n1 [I-109, 6-((7-((2-methoxy-3-(2-methyl-2H-tetrazol-5-yl)phenyl)amino)-2-methyl-3H-imidazo[4,5-b]pyridin-5-yl)amino)-3-(2-oxopyrrolidin-1-yl)picolinonitrile] |
| 1 to 10 | Cc1cn(C)nc1-c1ccc(Nc2cc(NC(=O)[C@H]3CC3(C)C)nc3[nH]c(C(F)F)nc23)c(S(C)(=O)=O)c1 [I-460, (S)—N-(2-(difluoromethyl)-7-((4-(1,4-dimethyl-1H-pyrazol-3-yl)-2-(methylsulfonyl)phenyl)amino)-3H-imidazo[4,5-b]pyridin-5-yl)-2,2-dimethylcyclopropane-1-carboxamide] |
| 0.1 to 0.5 | Cn1cncc1-c1ccc(Nc2cc(NC(=O)[C@H]3C[C@H]3F)nc3[nH]c(C(F)F)nc23)c(S(C)(=O)=O)c1 [I-405, (1R,2R)—N-(2-(difluoromethyl)-7-((4-(1-methyl-1H-imidazol-5-yl)-2-(methylsulfonyl)phenyl)amino)-3H-imidazo[4,5-b]pyridin-5-yl)-2-fluorocyclopropane-1-carboxamide] |
| 0.1 to 0.5 | COc1c(Nc2cc(NC(=O)[C@H]3C[C@H]3F)nc3[nH]c(C(F)F)nc23)cccc1-c1ncn(C)n1 [I-440, (1R,2R)—N-(2-(difluoromethyl)-7-((2-methoxy-3-(1-methyl-1H-1,2,4-triazol-3-yl)phenyl)amino)-3H-imidazo[4,5-b]pyridin-5-yl)-2-fluorocyclopropane-1-carboxamide] |
| 0.5 to 1 | COc1c(Nc2cc(Nc3ccc(NCCCCl)c(C#N)n3)nc3[nH]c(C)nc23)cccc1-c1nnn(C)n1 [I-403, 3-((3-chloropropyl)amino)-6-((7-((2-methoxy-3-(2-methyl-2H-tetrazol-5-yl)phenyl)amino)-2-methyl-3H-imidazo[4,5-b]pyridin-5-yl)amino)picolinonitrile] |
| 0.1 to 0.5 | Cc1nc2c(Nc3ccc(C4CC4)cc3S(C)(=O)=O)cc(NC(=O)C3CC3)nc2[nH]1 [I-188] |
